PubChem BioAssay AID2060490 (Molecular Pharmacology Branch, DTP, NCI, 2025)

Tested on: 885512-296-R-J2-PDC complex spheroid viability
Test: Anticancer human tumor 885512-296-R-J2-PDC patient-derived breast carcinoma cell line growth inhibition [GQUAD]
Settings: for IC50: curve of first compound; for viability, T/C: stronger effect = lower value
Method in brief: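 Multi-cell-type spheroids of tumor cells with HUVEC and mesenchymal stem cells, treated with drug combinations. Concentrations descend in half-log steps from near clinical Cmax, or from 10 microM where Cmax is unknown; viability read-out.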

[1] = second compound 0.0316 µM, first compound 0.000999 µM
[2] = second compound 0.0316 µM, first compound 0.00316 µM
[3] = second compound 0.0316 µM, first compound 0.00999 µM
[4] = second compound 0.0316 µM, first compound 0.0316 µM
[5] = second compound 0.0316 µM, first compound 0.0999 µM
[6] = second compound 0.0316 µM, first compound 0.316 µM
[7] = second compound 0.1 µM, first compound 0.000999 µM
[8] = second compound 0.1 µM, first compound 0.00316 µM
[9] = second compound 0.1 µM, first compound 0.00999 µM
[10] = second compound 0.1 µM, first compound 0.0316 µM
[11] = second compound 0.1 µM, first compound 0.0999 µM
[12] = second compound 0.1 µM, first compound 0.316 µM
[13] = second compound 0.316 µM, first compound 0.000999 µM
[14] = second compound 0.316 µM, first compound 0.00316 µM
[15] = second compound 0.316 µM, first compound 0.00999 µM
[16] = second compound 0.316 µM, first compound 0.0316 µM
[17] = second compound 0.316 µM, first compound 0.0999 µM
[18] = second compound 0.316 µM, first compound 0.316 µM
[19] = second compound 1 µM, first compound 0.000999 µM
[20] = second compound 1 µM, first compound 0.00316 µM
[21] = second compound 1 µM, first compound 0.00999 µM
[22] = second compound 1 µM, first compound 0.0316 µM
[23] = second compound 1 µM, first compound 0.0999 µM
[24] = second compound 1 µM, first compound 0.316 µM
[25] = second compound 3.16 µM, first compound 0.000999 µM
[26] = second compound 3.16 µM, first compound 0.00316 µM
[27] = second compound 3.16 µM, first compound 0.00999 µM
[28] = second compound 3.16 µM, first compound 0.0316 µM
[29] = second compound 3.16 µM, first compound 0.0999 µM
[30] = second compound 3.16 µM, first compound 0.316 µM
[31] = second compound 10 µM, first compound 0.000999 µM
[32] = second compound 10 µM, first compound 0.00316 µM
[33] = second compound 10 µM, first compound 0.00999 µM
[34] = second compound 10 µM, first compound 0.0316 µM
[35] = second compound 10 µM, first compound 0.0999 µM
[36] = second compound 10 µM, first compound 0.316 µM
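Note: spheroids exposed to the compounds for one week.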
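Throughout, for viability, T/C: percent of tumor spheroid viability relative to DMSO vehicle control wells.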

Compound `CCc1c2c(nc3ccc(O)cc13)-c1cc3c(c(=O)n1C2)COC(=O)[C@]3(O)CC` + CN(C)c1ccc(Nc2c3ccc(NC(=O)CCN4CCCC4)cc3nc3cc(NC(=O)CCN4CCCC4)ccc23)cc1 has an IC50 (second compound 0.0316 µM) of under 0.999 nM, an IC50 (second compound 0.1 µM) of under 0.999 nM and an IC50 (second compound 0.316 µM) of under 0.999 nM. For the same compound, the IC50 (second compound 1 µM) was under 0.999 nM, the IC50 (second compound 3.16 µM) was under 0.999 nM and the IC50 (second compound 10 µM) was under 0.999 nM. The viability, T/C [1] was 18.3%, the viability, T/C [2] was 6.69% and the viability, T/C [3] was 3.15%. It also gave a viability, T/C [4] of 1.94%, a viability, T/C [5] of 1.66% and a viability, T/C [6] of 1.39%. For the same compound, the viability, T/C [7] was 15.7%, the viability, T/C [8] was 7.02% and the viability, T/C [9] was 3.83%. For the same compound, the viability, T/C [10] was 2.59%, the viability, T/C [11] was 1.42% and the viability, T/C [12] was 1.57%. The viability, T/C [13] was 13.1%, the viability, T/C [14] was 7.17% and the viability, T/C [15] was 3.49%. For the same compound, the viability, T/C [16] was 2.63%, the viability, T/C [17] was 1.58% and the viability, T/C [18] was 1.1%. The viability, T/C [19] was 19.3%, the viability, T/C [20] was 6.88% and the viability, T/C [21] was 3.62%. The viability, T/C [22] was 2.24%, the viability, T/C [23] was 1.82% and the viability, T/C [24] was 1.23%. For the same compound, the viability, T/C [25] was 18.7%, the viability, T/C [26] was 11.3% and the viability, T/C [27] was 4.83%. For the same compound, the viability, T/C [28] was 2.33%, the viability, T/C [29] was 1.61% and the viability, T/C [30] was 1.26%. For the same compound, the viability, T/C [31] was 12.8%, the viability, T/C [32] was 10.4% and the viability, T/C [33] was 6.78%. The viability, T/C [34] was 3.28%, the viability, T/C [35] was 1.43% and the viability, T/C [36] was 0.56%.
Work on `Cn1ncnc1[C@H]1c2n[nH]c(=O)c3cc(F)cc(c23)N[C@@H]1c1ccc(F)cc1` + CN(C)c1ccc(Nc2c3ccc(NC(=O)CCN4CCCC4)cc3nc3cc(NC(=O)CCN4CCCC4)ccc23)cc1 yielded an IC50 (second compound 0.0316 µM) of 208 nM, an IC50 (second compound 0.1 µM) of over 316 nM and an IC50 (second compound 0.316 µM) of 215 nM. The IC50 (second compound 1 µM) was 195 nM, the IC50 (second compound 3.16 µM) was 74 nM and the IC50 (second compound 10 µM) was under 0.999 nM. It also gave a viability, T/C [1] of 90%, a viability, T/C [2] of 96.1% and a viability, T/C [3] of 91.3%. For the same compound, the viability, T/C [4] was 90.5%, the viability, T/C [5] was 64.3% and the viability, T/C [6] was 41.9%. For the same compound, the viability, T/C [7] was 112%, the viability, T/C [8] was 91.8% and the viability, T/C [9] was 99.3%. It also gave a viability, T/C [10] of 75.9%, a viability, T/C [11] of 71.6% and a viability, T/C [12] of 53.9%. It also gave a viability, T/C [13] of 112%, a viability, T/C [14] of 101% and a viability, T/C [15] of 94.4%. For the same compound, the viability, T/C [16] was 79.5%, the viability, T/C [17] was 61.5% and the viability, T/C [18] was 44%. It also gave a viability, T/C [19] of 96.8%, a viability, T/C [20] of 94% and a viability, T/C [21] of 90.4%. The viability, T/C [22] was 81.4%, the viability, T/C [23] was 57.8% and the viability, T/C [24] was 44.2%. The viability, T/C [25] was 95.2%, the viability, T/C [26] was 96.9% and the viability, T/C [27] was 93.8%. The viability, T/C [28] was 64.7%, the viability, T/C [29] was 47.8% and the viability, T/C [30] was 36%. The viability, T/C [31] was 18.6%, the viability, T/C [32] was 23% and the viability, T/C [33] was 25%. The viability, T/C [34] was 20.3%, the viability, T/C [35] was 19.1% and the viability, T/C [36] was 15.5%.
Work on `Cc1cccc(N(C)C(=O)C2C(O)CCN2c2nc(C)cc(C(F)(F)F)c2C#N)c1` (stereo unspecified) + CN(C)c1ccc(Nc2c3ccc(NC(=O)CCN4CCCC4)cc3nc3cc(NC(=O)CCN4CCCC4)ccc23)cc1 yielded an IC50 (second compound 0.0316 µM) of over 10000 nM, an IC50 (second compound 0.1 µM) of over 10000 nM and an IC50 (second compound 0.316 µM) of over 10000 nM. The IC50 (second compound 1 µM) was over 10000 nM, the IC50 (second compound 3.16 µM) was over 10000 nM and the IC50 (second compound 10 µM) was under 31.6 nM. The viability, T/C [4] was 101%, the viability, T/C (second compound 0.0316 µM, first compound 0.1 µM) was 89.8% and the viability, T/C [6] was 106%. The viability, T/C (second compound 0.0316 µM, first compound 1 µM) was 102%, the viability, T/C (second compound 0.0316 µM, first compound 3.16 µM) was 113% and the viability, T/C (second compound 0.0316 µM, first compound 10 µM) was 97.7%. For the same compound, the viability, T/C [10] was 110%, the viability, T/C (second compound 0.1 µM, first compound 0.1 µM) was 106% and the viability, T/C [12] was 102%. It also gave a viability, T/C (second compound 0.1 µM, first compound 1 µM) of 87.3%, a viability, T/C (second compound 0.1 µM, first compound 3.16 µM) of 104% and a viability, T/C (second compound 0.1 µM, first compound 10 µM) of 91.7%. For the same compound, the viability, T/C [16] was 111%, the viability, T/C (second compound 0.316 µM, first compound 0.1 µM) was 99.6% and the viability, T/C [18] was 106%. The viability, T/C (second compound 0.316 µM, first compound 1 µM) was 97.8%, the viability, T/C (second compound 0.316 µM, first compound 3.16 µM) was 101% and the viability, T/C (second compound 0.316 µM, first compound 10 µM) was 96.8%. The viability, T/C [22] was 88.5%, the viability, T/C (second compound 1 µM, first compound 0.1 µM) was 105% and the viability, T/C [24] was 95.1%. The viability, T/C (second compound 1 µM, first compound 1 µM) was 93.2%, the viability, T/C (second compound 1 µM, first compound 3.16 µM) was 84.6% and the viability, T/C (second compound 1 µM, first compound 10 µM) was 80.8%. It also gave a viability, T/C [28] of 94.8%, a viability, T/C (second compound 3.16 µM, first compound 0.1 µM) of 96.5% and a viability, T/C [30] of 108%. It also gave a viability, T/C (second compound 3.16 µM, first compound 1 µM) of 86.8%, a viability, T/C (second compound 3.16 µM, first compound 3.16 µM) of 96.2% and a viability, T/C (second compound 3.16 µM, first compound 10 µM) of 62.2%. The viability, T/C [34] was 23.6%, the viability, T/C (second compound 10 µM, first compound 0.1 µM) was 22.4% and the viability, T/C [36] was 18.6%. For the same compound, the viability, T/C (second compound 10 µM, first compound 1 µM) was 19.3%, the viability, T/C (second compound 10 µM, first compound 3.16 µM) was 15.8% and the viability, T/C (second compound 10 µM, first compound 10 µM) was 5.88%.
